Measured values: US10174029B2, “Pyrimidine-2,4-diamine derivatives for treatment of cancer” (THOMAS HELLEDAYS STIFTELSE FOR MEDICINSK FORSKNING, priority 2012, dated 2019)

Molecular target: MTH1 (Homo sapiens, UniProt P36639)
Assay: MTH1 enzymatic assay and IC50 value determination (malachite green)
Format: biochemical
Conditions: MTH1 4.8 nM, dGTP 100 μM, 15 minutes at 22° C.
Description: MTH1 Enzymatic Assay and IC50 Value Determination
MTH1 catalyzes the hydrolysis of dGTP to dGMP and PPi. By coupling the reaction to pyrophosphatase added in excess PPi is converted to Pi that can be detected by using the malachite green assay reagent. Briefly, for IC50 value determination the compound to be analyzed is diluted in assay buffer in a 1:3 dilution series generating 12 different compound concentrations giving a final DMSO concentration of 1% in the assay well. MTH1 diluted in assay buffer (100 mM Tris-acetate, 40 mM NaCl, 10 mM magnesium acetate, 1 mM DTT and 0.005% Tween 20) fortified with E. coli pyrophosphatase (0.8 U/ml) is added to a final concentration of 4.8 nM. dGTP diluted in assay buffer is added to a final concentration of 100 μM. The reaction mixture is incubated with shaking for 15 minutes at 22° C. To 100 μl reaction mixture is 25 μl Malachite green assay regent (0.095% Malachite green in 17% H2SO4, 1.5% Ammonium molybdate, 0.17% Tween 20) added followed by incubation with shaking for 15 minutes at 22° C.
The absorbance of the assay plate is read at 630 nm using an EnVision Multilabel plate reader. The IC50 value is determined by fitting a dose response curve to the data points using nonlinear regression analysis and the equation Y=Bottom+(Top−Bottom)/(1+10^((Log IC50−X)*HillSlope)), where Y is the read absorbance at 630 nm and X is log [compound].

Row | Structure (SMILES) | IC50 (group: less than 200 nM) [nM] | IC50 (group: between 2 μM and 10 μM) [nM]
1 | CNc1cc(-c2cc(Cl)c3c(c2)OCO3)nc(N)n1 [Example 97, 6-(7-chloro-2H-1,3-benzodioxol-5-yl)-4-N-methylpyrimidine-2,4-diamine] | < 200 | 
2 | CNc1cc(-c2cccc(CO)c2)nc(N)n1 [Example 101, {3-[2-amino-6-(methylamino)pyrimidin-4-yl]phenyl}methanol] | < 200 | 
3 | CNc1cc(-c2ccc(C(=O)OC)cc2)nc(N)n1 [Example 103, methyl 4-[2-amino-6-(methylamino)pyrimidin-4-yl]benzoate] | < 200 | 
4 | CNc1cc(-c2ccc(O)c(Cl)c2Cl)nc(N)n1 [Example 105, 4-[2-amino-6-(methylamino)pyrimidin-4-yl]-2,3-dichlorophenol] | < 200 | 
5 | CNc1cc(-c2ccc(C=O)cc2)nc(N)n1 [Example 108, 4-[2-amino-6-(methylamino)pyrimidin-4-yl]benzaldehyde] | < 200 | 
6 | CNC(=O)c1ccc(-c2cc(NC)nc(N)n2)cc1 [Example 110, 4-[2-amino-6-(methylamino)pyrimidin-4-yl]-N-methylbenzamide] | < 200 | 
7 | C=Cc1ccc(-c2cc(NC)nc(N)n2)cc1 [Example 111, 6-(4-ethenylphenyl)-4-N-methylpyrimidine-2,4-diamine] | < 200 | 
8 | Cc1cccc(-c2cc(NCCN3CCCCC3)nc(N)n2)c1C [Example 112, 6-(2,3-dimethylphenyl)-4-N-[2-(piperidin-1-yl)ethyl]pyrimidine-2,4-diamine] |  | 2000 to 10000
9 | CNc1cc(-c2cccc(C(=O)Nc3ccc(C)cc3)c2)nc(N)n1 [Example 115, 3-[2-amino-6-(methylamino)pyrimidin-4-yl]-N-(4-methylphenyl)benzamide] | < 200 | 
10 | COc1ccccc1CCNc1cc(-c2cccc(C)c2C)nc(N)n1 [Example 126, 6-(2,3-dimethylphenyl)-4-N-[2-(2-methoxyphenyl)ethyl]pyrimidine-2,4-diamine] | < 200 | 
11 | Cc1ccc(CCNc2cc(-c3cccc(C)c3C)nc(N)n2)cc1 [Example 127, 6-(2,3-dimethylphenyl)-4-N-[2-(4-methylphenyl)ethyl]pyrimidine-2,4-diamine] | < 200 | 
12 | Cc1cccc(-c2cc(NCCc3ccccn3)nc(N)n2)c1C [Example 129, 6-(2,3-dimethylphenyl)-4-N-[2-(pyridin-2-yl)ethyl]pyrimidine-2,4-diamine] | < 200 | 
13 | Cc1cccc(-c2cc(NCCCc3ccccc3)nc(N)n2)c1C [Example 131, 6-(2,3-dimethylphenyl)-4-N-(3-phenylpropyl)pyrimidine-2,4-diamine] | < 200 | 
14 | Cc1cccc(-c2cc(NCCOc3ccccc3)nc(N)n2)c1C [Example 132, 6-(2,3-dimethylphenyl)-4-N-(2-phenoxyethyl)pyrimidine-2,4-diamine] | < 200 | 
15 | CCCCCNc1cc(-c2cccc(C)c2C)nc(N)n1 [Example 135, 6-(2,3-dimethylphenyl)-4-N-pentylpyrimidine-2,4-diamine] | < 200 | 
16 | CNc1cc(-c2ccc(O)nc2)nc(N)n1 [Example 141, 5-[2-amino-6-(methylamino)pyrimidin-4-yl]pyridin-2-ol] | < 200 | 

Row | Structure (SMILES) | IC50 (group: less than 200 nM) [nM] | IC50 (group: between 2 μM and 10 μM) [nM]
17 | CNc1cc(-c2ccc(CO)cc2)nc(N)n1 [Example 142, {4-[2-amino-6-(methylamino)pyrimidin-4-yl]phenyl}methanol] | < 200 | 
18 | CNc1cc(-c2cn(S(=O)(=O)c3ccc(Cl)cc3)c3ccccc23)nc(N)n1 [Example 144, 6-[1-(4-chlorobenzenesulfonyl)-1H-indol-3-yl]-4-N-methylpyrimidine-2,4-diamine] | < 200 | 
19 | CNc1cc(-c2cc3cn[nH]c3cc2C)nc(N)n1 [Example 146, 4-N-methyl-6-(6-methyl-1H-indazol-5-yl)pyrimidine-2,4-diamine] | < 200 | 
20 | CNc1cc(-c2ccc3[nH]ccc3c2)nc(N)n1 [Example 148, 6-(1H-indol-5-yl)-4-N-methylpyrimidine-2,4-diamine] | < 200 | 
21 | Cc1cccc(-c2cc(NC3CCC3)nc(N)n2)c1C [Example 151, 4-N-cyclobutyl-6-(2,3-dimethylphenyl)pyrimidine-2,4-diamine] | < 200 | 
22 | CCNc1cc(-c2cn(S(=O)(=O)c3ccc(C)cc3)c3ccccc23)nc(N)n1 [Example 159, 4-N-ethyl-6-[1-(4-methylbenzenesulfonyl)-1H-indol-3-yl]pyrimidine-2,4-diamine] | < 200 | 
23 | Cc1ccc(S(=O)(=O)n2cc(-c3cc(NC(C)(C)C)nc(N)n3)c3ccccc32)cc1 [Example 161, 4-N-tert-butyl-6-[1-(4-methylbenzenesulfonyl)-1H-indol-3-yl]pyrimidine-2,4-diamine] |  | 2000 to 10000
24 | Cc1cccc(-c2cc(NCC3CC3)nc(N)n2)c1C [Example 164, 4-N-(cyclopropylmethyl)-6-(2,3-dimethylphenyl)pyrimidine-2,4-diamine] | < 200 | 
25 | Cc1ccc(S(=O)(=O)n2cc(-c3cc(NCC4CC4)nc(N)n3)c3ccccc32)cc1 [Example 165, 4-N-(cyclopropylmethyl)-6-[1-(4-methylbenzenesulfonyl)-1H-indol-3-yl]pyrimidine-2,4-diamine] | < 200 | 
26 | Cc1cccc(-c2cc(N[C@H](C)C3CC3)nc(N)n2)c1C [Example 166, 4-N-[(1R)-1-cyclopropylethyl]-6-(2,3-dimethylphenyl)pyrimidine-2,4-diamine] |  | 2000 to 10000
27 | Cc1ccc(S(=O)(=O)n2cc(-c3cc(N[C@H](C)C4CC4)nc(N)n3)c3ccccc32)cc1 [Example 167, 4-N-[(1R)-1-cyclopropylethyl]-6-[1-(4-methylbenzenesulfonyl)-1H-indol-3-yl]pyrimidine-2,4-diamine] |  | 2000 to 10000
28 | Cc1cccc(-c2cc(N[C@@H](C)C3CC3)nc(N)n2)c1C [Example 168, 4-N-[(1S)-1-cyclopropylethyl]-6-(2,3-dimethylphenyl)pyrimidine-2,4-diamine] | < 200 | 
29 | Nc1nc(NC2CCCCC2)cc(-c2cccc(Cl)c2Cl)n1 [Example 175, 4-N-cyclohexyl-6-(2,3-dichlorophenyl)pyrimidine-2,4-diamine] | < 200 | 
30 | C[C@@H](Nc1cc(-c2cccc(Cl)c2Cl)nc(N)n1)C1CC1 [Example 179, 4-N-[(1R)-1-cyclopropylethyl]-6-(2,3-dichlorophenyl)pyrimidine-2,4-diamine] |  | 2000 to 10000
31 | Cc1ccc(S(=O)(=O)n2cc(-c3cc(NCC(C)(C)C)nc(N)n3)c3ccccc32)cc1 [Example 182, 4-N-(2,2-dimethylpropyl)-6-[1-(4-methylbenzenesulfonyl)-1H-indol-3-yl]pyrimidine-2,4-diamine] |  | 2000 to 10000

Second part, the compound after the results:

Row | IC50 (group: less than 200 nM) [nM] | IC50 (group: between 2 μM and 10 μM) [nM] | Structure (SMILES)
32 | < 200 |  | CNc1cc(-c2ccccc2C(F)(F)F)nc(N)n1 [Example 89, 4-N-methyl-6-[2-(trifluoromethyl)phenyl]pyrimidine-2,4-diamine]
33 | < 200 |  | CNc1cc(-c2cccc3c2cnn3C)nc(N)n1 [Example 90, 4-N-methyl-6-(1-methyl-1H-indazol-4-yl)pyrimidine-2,4-diamine]
34 | < 200 |  | CNc1cc(-c2cccc(F)c2F)nc(N)n1 [Example 93, 6-(2,3-difluorophenyl)-4-N-methylpyrimidine-2,4-diamine]
35 | < 200 |  | CNc1cc(-c2ccc(OC)c(Cl)c2Cl)nc(N)n1 [Example 98, 6-(2,3-dichloro-4-methoxyphenyl)-4-N-methylpyrimidine-2,4-diamine]
36 | < 200 |  | CNc1cc(-c2ccnc(OC)c2Cl)nc(N)n1 [Example 120, 6-(3-chloro-2-methoxypyridin-4-yl)-4-N-methylpyrimidine-2,4-diamine]
37 | < 200 |  | CNc1cc(-c2ccncc2Cl)nc(N)n1 [Example 149, 6-(3-chloropyridin-4-yl)-4-N-methylpyrimidine-2,4-diamine]
38 | < 200 |  | CNc1cc(-c2cc(C)ccc2Cl)nc(N)n1 [Example 171, 6-(2-chloro-5-methylphenyl)-4-N-methylpyrimidine-2,4-diamine]
39 | < 200 |  | CNc1cc(-c2ccc(C(C)(C)O)cc2)nc(N)n1 [Example 173, 2-{4-[2-amino-6-(methylamino)pyrimidin-4-yl]phenyl}propan-2-ol]
40 | < 200 |  | CNc1cc(-c2cccc3[nH]ccc23)nc(N)n1 [Example 174, 6-(1H-indol-4-yl)-4-N-methylpyrimidine-2,4-diamine]
41 |  | 2000 to 10000 | CC(C)(C)CNc1cc(-c2cccc(Cl)c2Cl)nc(N)n1 [Example 180, 6-(2,3-dichlorophenyl)-4-N-(2,2-dimethylpropyl)pyrimidine-2,4-diamine]
42 |  | 2000 to 10000 | Cc1cccc(-c2cc(NCC(C)(C)C)nc(N)n2)c1C [Example 181, 6-(2,3-dimethylphenyl)-4-N-(2,2-dimethylpropyl)pyrimidine-2,4-diamine]
43 | < 200 |  | CNc1cc(-c2cc(Cl)c(OC)cc2Cl)nc(N)n1 [Example 192, 6-(2,5-dichloro-4-methoxyphenyl)-4-N-methylpyrimidine-2,4-diamine]
44 | < 200 |  | CNc1cc(-c2cc(C(C)(C)C)ccc2OC)nc(N)n1 [Example 197, 6-(5-tert-butyl-2-methoxyphenyl)-4-N-methylpyrimidine-2,4-diamine]
